Reference: patent publication US20130210823A1, “METHODS FOR C[…]” (SYNGENTA PARTICIPATIONS AG, priority 2010, published 2013)

System: Varroa destructor
Experiment: Varroa mite contact test on Potter-tower treated Petri dishes
Type: in vivo
Details: adult V. destructor, contact with spray deposit, concentration of formulation 1 × 10^−−4 g, assessed after 72 h
Text: Varroa mites came from bee colonies provided by a beekeeper. The mite population is kept in a dedicated apiary. For screening needs adults are collected on the same day as the beginning of experiment, either in beehive cells containing brood of worker bees or drones, or directly on bees emerging during collection.
Bee nymphs needed to feed adults of Varroa mites during experiments are choosen within the frames from which Varroa is also collected. They are collected at the stage of nymph with white or pink coloured eyes according methology described by Rembold et Kremer (Characterization of postembryonic developmental stages of the female castes of the honey bee, Apis mellifera L. Apidologie 11: 29-38).
3 cm diameter Petri dishes were used as confinement material of Varroa mites during experiments. Covers with wire mesh were put on the top of each Petri dish in order to avoid the mites to run away but also to keep favorable humidity for the bee nymph. […]
After treatment of Petri dishes, five (5) adults of V. destructor collected from the brood were placed in the petri dish. […] During a test 20 Varroa adults are tested for a given compound (4 dishes of 5 individuals).Mortality levels are assessed after 72 h (mites which are able to move their legs are considered as alive). […]

CC1=NNC(=O)N(N=Cc2cccnc2)C1 [pymetrozine, 2,3,4,5-tetrahydro-3-oxo-4-[(pyridin-3-yl)methyleneamino]-6-methyl-1,2,4-triazine]
% mortality of Varroa: 90%
